From patent publication US20240270713A1, “NOVEL COMPOUND EXHIBITING THERAPEUTIC EFFECT ON INFLAMMATORY DISEASE AS P38 MAP KINASE INHIBITOR” (PRAZERTHERAPEUTICS INC., priority 2021, published 2024) come the findings set out here.

SMILES strings stand for the structures. pIC50: −log10 of the molar value.

In assay [1] the test system is TNFα. As to the kind of experiment: TNFα inhibitory ability by cellular inflammatory response (supernatant, antibody-coated plate), Raw264.7 cells. The format is cell-based. Conditions: Mus musculus, 1 μM compound 24 hours, then 100 ng/ml LPS 24 hours, supernatant protein. On the procedure:
Evaluation of TNFα inhibitory ability by cellular inflammatory response
(§1) In order to identify inhibition of p-p38 MAPK, inhibition of p38 MAPK was identified after treating each compound to Raw264.7 cells obtained by converting macrophages that induces inflammation according to p-p38 MAPK activity cancerous cells. Briefly, Raw264.7 cells were cultured in Dulbecco's modified Eagle Medium supplemented with 10% fetal bovine serum and penicillin/streptomycin (100 U/ml). Raw264.7 cells were treated with 1 μM of Compounds 1 to 5 according to the present disclosure in a culture dish respectively and cultured for 24 hours in a CO2 incubator, and then treated with 100 ng/ml of LPS, followed by additional culture for 24 hours in a CO2 incubator.
After the cell culture was completed according to the experimental conditions, the supernatant was obtained and centrifuged for 3 minutes at 1200 rpm. The centrifuged supernatant was dispensed into an antibody-coated plate, reacted at room temperature for 2 hours, and washed with PBS-T (0.5% tween 20 in PBS). After dispensing detection antibody including HRP, a reaction was performed at room temperature for 1 hour, and the amount of protein was checked at a wavelength of 450 nm, the results of which are shown in Table 7 below.

Assay [2] relates to IL-1β mRNA. The assay is described as follows: Cytokine mRNA expression inhibitory ability, IL-1β, LPS-treated Raw264.7 cells. The class given is cell-based. Conditions: 1 μM compound 24 hours, then 100 ng/ml LPS 24 hours. The method, then:
(§2) Evaluation of cytokine mRNA expression inhibitory ability according to inflammatory response
as §1
(§3) After cell culture was terminated according to the experimental conditions, cells were washed with cold phosphate buffered saline (PBS). The cells were then collected and centrifuged at 1200 rpm for 3 minutes. RNA was extracted according to the method provided in the Hybrid-R total RNA purification kit (GeneAll, 305-101). After measuring the concentration and purity of RNA using Nanodrop, cDNA was synthesized according to the method provided in TOPscript RT DryMIX (Enzynomics, RT200). After a reaction at 95° C. for 3 minutes using SYBR Green Mix along with primer, cDNA was subjected to repetitive reactions 30 times at 95° C. for 10 seconds, at 55° C. for 10 seconds, and at 72° C. for 30 seconds to determine the RNA expression level. The results are shown in Tables 5 and 6 below and FIGS. 1 and 2.

Assay [3] addresses p38 alpha (Homo sapiens (Human), UniProt Q16539). As to the kind of experiment: p38α MAPK inhibitory ability (peptide/kinase mixture, development reagent, 445/520 nm). Conditions: 1 hour at room temperature. The format is biochemical. The method, then:
Evaluation of p38a mitogen-activated protein kinase (MAPK) inhibitory ability
To determine the ability to inhibit p38 MAPK, Compounds 1 to 5 were diluted to determine the inhibitory effect depending on a concentration. Briefly, the compounds were diluted at concentrations of 1000, 333, 111, 37.0, 12.3, 4.12, 1.37, 0.457, 0.152, and 0.0495 nM, respectively, and then a peptide/kinase mixture (final 7.07-28.3 ng p38 alpha, 2 μM serine/threonine 15, 50 mM HEPES pH 7.0, 0.01% NaN3) and ATP solution were added respectively. After reacting at room temperature for 1 hour, a development reagent was added, followed by a reaction again at room temperature for 1 hour.

In assay [4] the target is p-p38 MAPK (Mus musculus (Mouse), UniProt P47811). The assay is described as follows: p38 MAPK protein inhibitory ability in cells (p-p38 immunoblot, LPS-treated Raw264.7). The format is cell-based. The conditions noted are these: Raw264.7 cells, 1 μM compound 24 hours, then 100 ng/ml LPS 6 hours. The method, then: Evaluation of p38 MAPK protein inhibitory ability in cells
as §1, with “Raw264.7 cells which are obtained by” for “Raw264.7 cells obtained by”, “MAPK activity into cancerous cells.” for “MAPK activity cancerous cells.”, “culture for 6 hours in” for “culture for 24 hours in”
After cell culture was terminated according to the experimental conditions, cells were washed with cold phosphate buffered saline (PBS). The cells were then collected and centrifuged at 1200 rpm for 3 minutes. The pellet was lysed with 2X sample buffer (1M Tris-HCl pH 6.8, 50% glycerol, 10% SDS, 2-mercaptoethanol, 1% bromophenol blue) and boiled at 100° C. for 10 minutes. The prepared protein samples were subjected to sodium dodecyl sulfate poly acrylamide gel electrophoresis and transferred to PVDF membrane (Millipore). For a specific binding reaction between the protein in the PVDF membrane and antibody, blocking was performed in a 5% bovine serum albumin (BSA, RMbio) solution. Subsequently, the BSA solution was discarded, and the membrane was washed with PBS-T (0.5% Tween 20 in PBS). The binding reaction of the protein in the membrane and antibody was performed overnight at 4° C. and washed again with PBS-T. Finally, a secondary antibody (Cell signaling Technology) conjugated with horse radish peroxidase (HRP) was diluted in PBS-T and reacted at room temperature for 2 hours. Luminata Forte HRP substrate (Millipore) was used to determine the amount of protein in the membrane, the results of which are shown in Table 4 below.

The subject of assay [5] is TNFα mRNA. As to the kind of experiment: Cytokine mRNA expression inhibitory ability, TNFα, LPS-treated Raw264.7 cells. The class given is cell-based. Conditions: 1 μM compound 24 hours, then 100 ng/ml LPS 24 hours. The method, then: as §2, §1, §3

Sequence of p-p38 MAPK (P47811 whole entry): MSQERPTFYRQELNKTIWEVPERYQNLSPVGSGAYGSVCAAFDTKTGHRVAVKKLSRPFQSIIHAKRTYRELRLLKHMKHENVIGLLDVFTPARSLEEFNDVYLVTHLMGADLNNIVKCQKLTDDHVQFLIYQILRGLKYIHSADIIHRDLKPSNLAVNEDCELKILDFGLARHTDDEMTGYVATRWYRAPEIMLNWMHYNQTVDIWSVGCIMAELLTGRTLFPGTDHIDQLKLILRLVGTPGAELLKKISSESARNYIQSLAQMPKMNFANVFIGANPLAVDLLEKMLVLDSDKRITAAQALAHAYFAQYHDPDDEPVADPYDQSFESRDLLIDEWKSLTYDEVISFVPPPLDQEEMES
Sequence of p38 alpha (Q16539 whole entry): as the sequence (P47811 whole entry) above, with H48L, A263T counted along it

Usually inhibition stands for the change of the read-out against control, counted positive when it falls. The pIC50 is the IC50 on a negative log10 scale, so that one unit is a factor of ten. Turning to `Cc1c(F)cc(C(=O)NC2CC2)cc1-c1ccc(C(=O)c2cn(Cc3ccccc3)c3ccccc23)cn1` [Compound 5, 3-(5-(1-benzyl-1H-indole-3-carbonyl)pyridin-2-yl)-N-cyclopropyl-5-fluoro-4-methylbenzamide], the inhibition at 1 µM in assay [1] worked out at 23.8%; in assay [4] it was 52.8%. Further, the “IL-1β mRNA inhibition” value in assay [2] turned out to be 3.2%. Also, the negative-log IC50 (pIC50) in assay [3] is 6.71. Besides, the “TNFα mRNA inhibition” value in assay [5] was 4.1%.
In the same order, the values of `Cc1c(F)cc(C(=O)NC2CC2)cc1-c1ccc(C(=O)c2ccc(OCC(O)CO)cc2)cn1` (centres unmarked) [Compound 1, N-cyclopropyl-3-(5-(4-(2,3-dihydroxypropoxy)benzoyl)pyridin-2-yl)-5-fluoro-4-methylbenzamide] are 22.1%, 11.3%, 21.4%, 7.65 and 38.1%.
As to `Cc1c(F)cc(C(=O)NC2CC2)cc1-c1ccc(C(=O)c2c[nH]c3cc(OCC(O)CO)ccc23)cn1` (centres unmarked) [Compound 3, N-cyclopropyl-3-(5-(6-(2,3-dihydroxypropoxy)-1H-indole-3-carbonyl)pyridin-2-yl)-5-fluoro-4-methylbenzamide], the inhibition at 1 µM in assay [1] was determined as 16.7%; in assay [4], 39.7%. Besides, the “IL-1β mRNA inhibition” value in assay [2] worked out at 12.3%. In addition, the pIC50 in assay [3] was 7.46. Also, in assay [5], the “TNFα mRNA inhibition” value was found to be 39.2%.
Consider `O=C(NC1CC1)c1ccc(Cl)c(-c2ccc(C(=O)c3c[nH]c4ccccc34)cc2)c1` [Compound 2, 6-chloro-N-cyclopropyl-4′-(1H-indole-3-carbonyl)-[1,1′-biphenyl]-3-carboxamide], for which the inhibition at 1 µM in assay [1] came to 68.5%; in assay [4], 69%. The “IL-1β mRNA inhibition” value in assay [2] came out at 24.4%. In addition, the pIC50 in assay [3] is 7.47. In assay [5], the “TNFα mRNA inhibition” value is recorded as 37.6%.
